Measurements taken from ChEMBL document CHEMBL4392854, “Discovery, synthesis, biological evaluation and molecular docking study of (R)-5-methylmellein and its analogs as selective monoamine oxidase A inhibitors” (Bioorg Med Chem, 2019).

Columns and labels:
[1] = biological target: T1, Amine oxidase [flavin-containing] B (Homo sapiens, UniProt P27338); experiment: Inhibition of human recombinant MAOB using kynuramine as substrate incubated for 10 mins by UPLC-ESI-MS/MS analysis
T1 sequence (P27338 whole entry): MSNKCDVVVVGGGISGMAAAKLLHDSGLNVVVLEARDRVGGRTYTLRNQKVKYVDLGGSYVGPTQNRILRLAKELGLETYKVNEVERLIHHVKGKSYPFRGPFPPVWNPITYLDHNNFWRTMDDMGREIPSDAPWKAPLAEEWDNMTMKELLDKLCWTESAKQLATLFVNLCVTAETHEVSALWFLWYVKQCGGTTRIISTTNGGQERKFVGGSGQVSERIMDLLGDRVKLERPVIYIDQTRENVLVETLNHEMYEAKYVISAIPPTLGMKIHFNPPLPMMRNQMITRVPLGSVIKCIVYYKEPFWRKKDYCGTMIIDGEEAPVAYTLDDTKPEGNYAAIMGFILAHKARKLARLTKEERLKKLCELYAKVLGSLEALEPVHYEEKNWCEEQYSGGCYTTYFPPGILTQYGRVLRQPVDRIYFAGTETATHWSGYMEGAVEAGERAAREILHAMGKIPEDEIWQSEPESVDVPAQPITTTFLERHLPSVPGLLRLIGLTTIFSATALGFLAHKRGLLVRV

[2] = biological target: T2, Amine oxidase [flavin-containing] A (Homo sapiens, UniProt P21397); experiment: Inhibition of human recombinant MAOA using kynuramine as substrate incubated for 10 mins by UPLC-ESI-MS/MS analysis
T2 sequence (P21397 whole entry): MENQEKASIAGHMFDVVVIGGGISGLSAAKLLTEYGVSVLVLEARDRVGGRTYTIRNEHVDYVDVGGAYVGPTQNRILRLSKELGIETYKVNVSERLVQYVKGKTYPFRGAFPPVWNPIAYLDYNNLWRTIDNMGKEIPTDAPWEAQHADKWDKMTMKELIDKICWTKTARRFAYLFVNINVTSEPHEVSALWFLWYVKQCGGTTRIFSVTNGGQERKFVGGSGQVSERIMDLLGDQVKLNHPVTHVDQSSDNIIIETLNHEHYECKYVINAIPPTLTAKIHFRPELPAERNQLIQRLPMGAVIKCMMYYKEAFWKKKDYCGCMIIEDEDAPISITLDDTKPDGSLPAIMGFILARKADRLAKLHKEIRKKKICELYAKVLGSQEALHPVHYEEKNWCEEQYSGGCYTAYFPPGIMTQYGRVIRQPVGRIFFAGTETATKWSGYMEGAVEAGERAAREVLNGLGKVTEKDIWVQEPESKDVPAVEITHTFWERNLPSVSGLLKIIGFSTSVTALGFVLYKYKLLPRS

Homo sapiens = species: Homo sapiens; experiment: Selectivity index, ratio of IC50 for human recombinant MAOB to IC50 for human recombinant MAOA
[3] = biological target: T2, Amine oxidase [flavin-containing] A; experiment: Inhibition of human recombinant MAOA using kynuramine as substrate incubated for 10 mins by UPLC-ESI-MS/MS analysis based Michaelis-Menten plot kinetic analysis
[4] = biological target: T2, Amine oxidase [flavin-containing] A; experiment: Tight-binding competitive inhibition of human recombinant MAOA using kynuramine as substrate incubated for 10 mins by UPLC-ESI-MS/MS analysis based Lineweaver-Burk plot kinetic analysis
[5] = biological target: T2, Amine oxidase [flavin-containing] A; experiment: Inhibition of human recombinant MAOA using kynuramine as substrate incubated for 10 mins by UPLC-ESI-MS/MS analysis based Eadie-Hofstee plot analysis
Monoamine oxidase = biological target: T3, Monoamine oxidase (Mus musculus, UniProt Q8BW75+Q64133); experiment: Inhibition of mouse brain monoamine oxidase
T3 sequence (Q8BW75 whole entry): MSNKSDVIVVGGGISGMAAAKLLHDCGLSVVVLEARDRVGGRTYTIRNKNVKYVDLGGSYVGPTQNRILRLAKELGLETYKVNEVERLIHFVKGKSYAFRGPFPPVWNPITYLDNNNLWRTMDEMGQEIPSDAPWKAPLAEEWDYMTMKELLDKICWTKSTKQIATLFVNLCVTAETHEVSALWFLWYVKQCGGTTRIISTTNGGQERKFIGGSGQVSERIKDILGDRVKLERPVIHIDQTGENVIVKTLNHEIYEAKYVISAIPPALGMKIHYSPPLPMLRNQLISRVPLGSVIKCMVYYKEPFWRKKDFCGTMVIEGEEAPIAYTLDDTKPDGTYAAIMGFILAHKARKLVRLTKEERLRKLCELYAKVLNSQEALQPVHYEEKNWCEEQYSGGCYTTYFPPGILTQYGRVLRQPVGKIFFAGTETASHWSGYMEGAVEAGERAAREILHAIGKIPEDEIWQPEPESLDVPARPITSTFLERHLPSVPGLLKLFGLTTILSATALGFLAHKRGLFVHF
T3 sequence (Q64133 whole entry): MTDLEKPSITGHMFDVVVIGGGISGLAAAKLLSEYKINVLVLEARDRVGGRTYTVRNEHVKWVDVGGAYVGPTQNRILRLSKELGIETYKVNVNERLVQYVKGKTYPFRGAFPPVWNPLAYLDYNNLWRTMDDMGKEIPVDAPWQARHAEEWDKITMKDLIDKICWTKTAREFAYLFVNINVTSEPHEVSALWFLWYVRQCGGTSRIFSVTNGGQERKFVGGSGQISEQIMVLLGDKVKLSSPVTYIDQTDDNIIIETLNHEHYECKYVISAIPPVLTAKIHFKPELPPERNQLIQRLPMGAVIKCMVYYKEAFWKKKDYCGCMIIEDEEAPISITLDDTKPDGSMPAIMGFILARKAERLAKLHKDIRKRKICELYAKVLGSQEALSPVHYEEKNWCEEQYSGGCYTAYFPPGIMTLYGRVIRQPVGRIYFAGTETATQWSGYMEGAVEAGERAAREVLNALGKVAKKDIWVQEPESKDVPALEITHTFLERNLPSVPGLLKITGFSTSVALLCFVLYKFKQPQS

Row | SMILES | IC50 [1] [µM] | IC50 [2] [µM] | Ratio IC50 (Homo sapiens) | inhibition (INH) [3] | inhibition (INH) [4] | inhibition (INH) [5] | IC50 (Monoamine oxidase) [µM]
1 | Cc1cc(C(=O)O)c(O)c2c1C[C@@H](C)OC2=O | > 50 | > 50 | – | – | – | – | –
2 | C[C@H]1Cc2cccc(O)c2C(=O)O1 | 24 | 7.5 | 3.2 | – | – | – | –
3 | CCCc1cc(C)c2c(c1O)C(=O)O[C@H](C)C2 | > 50 | 4.5 | > 11 | – | – | – | –
4 | CCCCc1cc(C)c2c(c1O)C(=O)O[C@H](C)C2 | > 50 | 18.3 | > 2.7 | – | – | – | –
5 | C[C@@H]1Cc2cccc(O)c2C(=O)O1 [(-)-(R)-MELLEIN] | 50 | 6.2 | 8.1 | – | – | – | –
6 | Cc1cc(-c2ccc(N)cc2)c(O)c2c1C[C@@H](C)OC2=O | 21 | 0.8 | 26 | – | – | – | –
7 | Cc1ccc(O)c2c1C[C@H](C)OC2=O | 40.9 | 4.1 | 10 | – | – | – | –
8 | Cc1cc(C(=O)NCCN2CCOCC2)c(O)c2c1C[C@@H](C)OC2=O | > 50 | > 50 | – | – | – | – | –
9 | CCN(CC)C(=O)c1cc(C)c2c(c1O)C(=O)O[C@H](C)C2 | > 50 | > 50 | – | – | – | – | –
10 | Cc1cc(-c2cccc([N+](=O)[O-])c2)c(O)c2c1C[C@@H](C)OC2=O | > 50 | 3 | > 17 | – | – | – | –
11 | CC[C@@H]1Cc2c(C)ccc(O)c2C(=O)O1 | > 50 | 8 | > 6.2 | – | – | – | –
12 | Cc1ccc(O)c2c1CCOC2=O | 5.5 | 3.2 | 1.7 | – | – | – | –
13 | Cc1cc(C(=O)N(C)C)c(O)c2c1C[C@@H](C)OC2=O | > 50 | > 50 | – | – | – | – | –
14 | Cc1cc(N(C)C)c(O)c2c1C[C@@H](C)OC2=O | > 50 | 13.6 | > 3.6 | – | – | – | –
15 | Cc1cc(I)c(O)c2c1C[C@@H](C)OC2=O | > 50 | 15.9 | > 3.1 | – | – | – | –
16 | Cc1ccc(-c2cc(C)c3c(c2O)C(=O)O[C@H](C)C3)cc1 | 4.1 | 12.4 | 0.3 | – | – | – | –
17 | Cc1cc(C)c2c(c1O)C(=O)O[C@H](C)C2 | > 50 | 3.8 | > 13 | – | – | – | –
18 | COc1cccc2c1C(=O)O[C@H](C)C2 | > 50 | > 50 | – | – | – | – | –
19 | Cc1cc(C(=O)N2CCOCC2)c(O)c2c1C[C@@H](C)OC2=O | > 50 | > 50 | – | – | – | – | –
20 | Cc1cc(Br)c(O)c2c1C[C@@H](C)OC2=O | > 50 | 28.6 | > 1.7 | – | – | – | –
21 | Cc1cc(CO)c(O)c2c1C[C@@H](C)OC2=O | > 50 | 19.2 | > 2.6 | – | – | – | –
22 | Cc1cc(-c2cccnc2)c(O)c2c1C[C@@H](C)OC2=O | > 50 | 0.2 | > 250 | Active | Active | Active | –
23 | COc1ccc(NCc2cc(C)c3c(c2O)C(=O)O[C@H](C)C3)cc1 | > 50 | 4.4 | > 11 | – | – | – | –
24 | Cc1ccc(O)c2c1CC(C)(C)OC2=O | > 50 | > 50 | – | – | – | – | –

Row | SMILES | IC50 [1] [µM] | IC50 [2] [µM] | Ratio IC50 (Homo sapiens) | inhibition (INH) [3] | inhibition (INH) [4] | inhibition (INH) [5] | IC50 (Monoamine oxidase) [µM]
25 | Cc1cc([N+](=O)[O-])c(O)c2c1C[C@@H](C)OC2=O | > 50 | 15.8 | > 3.1 | – | – | – | –
26 | CC[C@@H]1Cc2c(C)cc(-c3ccc(N)cc3)c(O)c2C(=O)O1 | > 50 | 0.3 | > 167 | – | – | – | –
27 | Cc1cc(-c2cncnc2)c(O)c2c1C[C@@H](C)OC2=O | > 50 | 0.14 | > 350 | Active | Active | Active | –
28 | Cc1cc(-c2ccccc2)c(O)c2c1C[C@@H](C)OC2=O | 1 | 10.5 | 0.1 | – | – | – | –
29 | COc1ccc(C)c2c1C(=O)O[C@H](C)C2 | > 50 | > 50 | – | – | – | – | –
30 | C[C@@H]1Cc2c(C(=O)O)ccc(O)c2C(=O)O1 | > 50 | > 50 | – | – | – | – | –
31 | Cc1cc(-c2cccc(N)c2)c(O)c2c1C[C@@H](C)OC2=O | > 50 | 0.2 | > 250 | Active | Active | Active | –
32 | COc1ccc(C)c2c1C(=O)O[C@@H](C)C2 | > 50 | > 50 | – | – | – | – | –
33 | C[C@@H]1Cc2c(O)ccc(O)c2C(=O)O1 | > 50 | 17.1 | > 2.9 | – | – | – | –
34 | CCc1cc(C)c2c(c1O)C(=O)O[C@H](C)C2 | > 50 | 2.9 | > 17 | – | – | – | –
35 | Cc1cc(-c2ccncc2)c(O)c2c1C[C@@H](C)OC2=O | > 50 | 2.7 | > 18 | – | – | – | –
36 | Cc1cc(-c2ccc(O)cc2)c(O)c2c1C[C@@H](C)OC2=O | 38.9 | 1.1 | 38 | – | – | – | –
37 | Cc1cc(Cl)c(O)c2c1C[C@@H](C)OC2=O | > 50 | 2.2 | > 22 | – | – | – | –
38 | Cc1cc(C#N)c(O)c2c1C[C@@H](C)OC2=O | > 50 | > 50 | – | – | – | – | –
39 | Cc1cc(-c2ccc(C(F)(F)F)cc2)c(O)c2c1C[C@@H](C)OC2=O | 1 | 13.7 | 0.1 | – | – | – | –
40 | Cc1ccc(O)c2c1C[C@@H](C)OC2=O | 38.5 | 4.6 | 8.3 | – | – | – | 1.06
41 | Cc1cc(C(=O)N2CCN(C)CC2)c(O)c2c1C[C@@H](C)OC2=O | > 50 | > 50 | – | – | – | – | –
42 | Cc1cc(-c2ccccn2)c(O)c2c1C[C@@H](C)OC2=O | > 50 | 2.1 | > 24 | – | – | – | –
43 | CCc1ccc(O)c2c1C[C@@H](C)OC2=O | 16.1 | > 50 | < 0.3 | – | – | – | –
44 | C=CC(=O)Nc1cc(C)c2c(c1O)C(=O)O[C@H](C)C2 | > 50 | > 50 | – | – | – | – | –
45 | Cc1cc2cccc(O)c2c(=O)o1 | > 50 | 23.4 | > 2 | – | – | – | –
46 | Cc1cc(N)c(O)c2c1C[C@@H](C)OC2=O | > 50 | 4.1 | > 11 | – | – | – | –
47 | C[C@@H]1Cc2c(CO)ccc(O)c2C(=O)O1 | > 50 | > 50 | – | – | – | – | –
